The structures appear in SMILES notation.

The target in the assay is RAC-alpha serine/threonine-protein kinase (Homo sapiens, UniProt P31749). In words: TR-FRET assay: For the assay 50 nl of a 100fold concentrated solution of the test compound in DMSO was pipetted into a black low volume 384well microtiter plate (Greiner Bio- One, Frickenhausen, Germany), 2 ul of a solution of Akt1 in assay buffer [50 mM TRIS/HCI pH 7.5, 5 mM MgCI2, 1 mM dithiothreitol, 0.02% (v/v) Triton X-100 (Sigma)] were added and the mixture was incubated for 15 min at 22 C to allow pre-binding of the test compounds to the enzyme before the start of the kinase reaction. Then the kinase reaction was started by the addition of 3 ul of a solution of adenosine-tri-phosphate (ATP, 16.7 ul => final cone, in the 5 ul assay volume is 10 ul) and substrate (1 .67 ul => final cone, in the 5 ul assay volume is 1 ul) in assay buffer and the resulting mixture was incubated for a reaction time of 60 min at 22 C. The concentration of Akt1 in the assay was adjusted depending of the activity of the enzyme lot. (In general: Time-resolved FRET reads energy transfer from a long-lived donor to a nearby acceptor.)
Sequence of RAC-alpha serine/threonine-protein kinase (P31749 whole entry): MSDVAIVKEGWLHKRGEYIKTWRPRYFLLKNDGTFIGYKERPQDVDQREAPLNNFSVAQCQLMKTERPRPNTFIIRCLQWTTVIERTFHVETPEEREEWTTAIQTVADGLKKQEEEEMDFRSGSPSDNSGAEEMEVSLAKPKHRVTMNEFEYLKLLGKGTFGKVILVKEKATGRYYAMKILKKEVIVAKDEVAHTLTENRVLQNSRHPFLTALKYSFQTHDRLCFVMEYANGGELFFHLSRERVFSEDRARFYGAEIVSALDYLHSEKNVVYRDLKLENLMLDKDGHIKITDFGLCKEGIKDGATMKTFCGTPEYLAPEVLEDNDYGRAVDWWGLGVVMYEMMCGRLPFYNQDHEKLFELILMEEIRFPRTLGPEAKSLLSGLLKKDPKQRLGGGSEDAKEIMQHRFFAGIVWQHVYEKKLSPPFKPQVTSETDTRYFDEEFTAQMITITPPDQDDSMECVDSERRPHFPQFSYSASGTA
For orientation: IC50 means the concentration needed to halve the response being measured. As for `NC1(c2ccc(-c3nc4c5cc(F)ccc5nn4cc3-c3ccccc3)cc2)CCC1`, the IC50 is 93 nM.

`NC1(c2ccc(-c3nc4c5cc(-c6ccc(F)cc6)ccc5nn4cc3-c3ccccc3)cc2)CCC1`: the IC50 was 110 nM.

`N#Cc1cccc(-c2ccc3nn4cc(-c5ccccc5)c(-c5ccc(C6(N)CCC6)cc5)nc4c3c2)c1`: the IC50 stood at 67 nM.

As for `N#Cc1ccc(-c2cccc3nn4cc(-c5ccccc5)c(-c5ccc(C6(N)CCC6)cc5)nc4c23)cc1`, the IC50 was determined as 320 nM.

Regarding `N#Cc1cccc(-c2cccc3c2nn2cc(-c4ccccc4)c(-c4ccc(C5(N)CCC5)cc4)nc32)c1`, the IC50 amounted to 10000 nM.

`N#Cc1cccc2c1nn1cc(-c3ccccc3)c(-c3ccc(C4(N)CCC4)cc3)nc21`: the half-inhibitory concentration (IC50) amounted to 49 nM.

Turning to `NC1(c2ccc(-c3nc4c5cccc(O)c5nn4cc3-c3ccccc3)cc2)CCC1`, the IC50 came out at 100 nM.

For the origin of these results see ChEMBL document CHEMBL3639046, “Substituted pyrimido[1,2-b]indazoles and their use as modulators of the Pi3K/Akt pathway” (2015).
